Active and inactive are the calls of the source.
Assays:
[1] = Luminescence Cell-Based Dose Response to Identify Activators of 5'UTR Stem-Loop Driven Prion Protein mRNA Translation in H4-C Neuroglioblastoma Cells. [Related pubchem assays: 1829 (Project Summary), 1814 (Primary HTS)]; type: functional
[2] = Luminescence Cell-Based Dose Confirmation HTS to Identify Activators of 5'UTR Stem-Loop Driven Alpha-Synuclein mRNA Translation in H4 Neuroglioblastoma Cells. [Related pubchem assays: 1829 (Project Summary), 1814 (Primary HTS)]; type: functional
[3] = Luminescence Cell-Based Dose Response HTS to Identify Activators of Luciferase Translation or Activity in H4 […] Cells. [Related pubchem assays: 1829 (Project Summary), 1814 (Primary HTS)]; type: functional
[4] = tested on: H4; assay: Luminescence Cell-Based Dose Response HTS to Identify Activators of 5'UTR Stem-Loop Driven Prion Protein mRNA Translation in H4 Neuroglioblastoma Cells. [Related pubchem assays: 1829 (Project Summary), 1814 (Primary HTS)]; type: functional; details: Homo sapiens
[5] = Luminescence Cell-Based Dose Response to Identify Activators of Luciferase Translation or Activity in H4-C Neuroglioblastoma Cells. [Related pubchem assays: 1829 (Project Summary), 1814 (Primary HTS)]; type: functional
[6] = Luminescence Cell-Based Dose Confirmation to Identify Activators of 5'UTR Stem-Loop Driven Alpha-Synuclein mRNA Translation in H4 Neuroglioblastoma Cells. [Related pubchem assays: 1829 (Project Summary), 1814 (Primary HTS)]; type: functional
[7] = tested on: HeLa; assay: HeLa cell cytotoxicity, dose response, cytotoxicity control for MITF activator project, CellTiter-Glo luminescence, cherry-pick samples (AID 540259); type: functional, cell-based; details: Homo sapiens
[8] = inhibitors of intracellular T. cruzi replication, confirmation, NIH3T3 host cells, beta-gal luminescence (AID 2044); type: functional, cell-based;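 note: intracellular parasites grown in NIH/3T3 mouse fibroblasts as host cells; luminescent beta-galactosidase reporter signal from transgenic T. cruzi replicating inside host cells; inhibitors lower the luminescence signal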
[9] = cytotoxicity toward NIH3T3 fibroblasts, dose response, counter-screen, cell-based, ATP luminescence, mouse fibroblasts (AID 2010); type: functional;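 note: cells exposed to compound for about 90 hours before reading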
[10] = target: T1, Fatty acid synthase (Homo sapiens, UniProt P49327); assay: FAS thioesterase domain inhibitors, dose response, biochemical, endpoint fluorescence intensity, uHTS hits (AID 624327); type: functional;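 note: fluorescence from hydrolysis of an O-methyl fluorescein acyl ester substrate by the enzyme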
T1 sequence (P49327 whole entry, the tested form may be a part): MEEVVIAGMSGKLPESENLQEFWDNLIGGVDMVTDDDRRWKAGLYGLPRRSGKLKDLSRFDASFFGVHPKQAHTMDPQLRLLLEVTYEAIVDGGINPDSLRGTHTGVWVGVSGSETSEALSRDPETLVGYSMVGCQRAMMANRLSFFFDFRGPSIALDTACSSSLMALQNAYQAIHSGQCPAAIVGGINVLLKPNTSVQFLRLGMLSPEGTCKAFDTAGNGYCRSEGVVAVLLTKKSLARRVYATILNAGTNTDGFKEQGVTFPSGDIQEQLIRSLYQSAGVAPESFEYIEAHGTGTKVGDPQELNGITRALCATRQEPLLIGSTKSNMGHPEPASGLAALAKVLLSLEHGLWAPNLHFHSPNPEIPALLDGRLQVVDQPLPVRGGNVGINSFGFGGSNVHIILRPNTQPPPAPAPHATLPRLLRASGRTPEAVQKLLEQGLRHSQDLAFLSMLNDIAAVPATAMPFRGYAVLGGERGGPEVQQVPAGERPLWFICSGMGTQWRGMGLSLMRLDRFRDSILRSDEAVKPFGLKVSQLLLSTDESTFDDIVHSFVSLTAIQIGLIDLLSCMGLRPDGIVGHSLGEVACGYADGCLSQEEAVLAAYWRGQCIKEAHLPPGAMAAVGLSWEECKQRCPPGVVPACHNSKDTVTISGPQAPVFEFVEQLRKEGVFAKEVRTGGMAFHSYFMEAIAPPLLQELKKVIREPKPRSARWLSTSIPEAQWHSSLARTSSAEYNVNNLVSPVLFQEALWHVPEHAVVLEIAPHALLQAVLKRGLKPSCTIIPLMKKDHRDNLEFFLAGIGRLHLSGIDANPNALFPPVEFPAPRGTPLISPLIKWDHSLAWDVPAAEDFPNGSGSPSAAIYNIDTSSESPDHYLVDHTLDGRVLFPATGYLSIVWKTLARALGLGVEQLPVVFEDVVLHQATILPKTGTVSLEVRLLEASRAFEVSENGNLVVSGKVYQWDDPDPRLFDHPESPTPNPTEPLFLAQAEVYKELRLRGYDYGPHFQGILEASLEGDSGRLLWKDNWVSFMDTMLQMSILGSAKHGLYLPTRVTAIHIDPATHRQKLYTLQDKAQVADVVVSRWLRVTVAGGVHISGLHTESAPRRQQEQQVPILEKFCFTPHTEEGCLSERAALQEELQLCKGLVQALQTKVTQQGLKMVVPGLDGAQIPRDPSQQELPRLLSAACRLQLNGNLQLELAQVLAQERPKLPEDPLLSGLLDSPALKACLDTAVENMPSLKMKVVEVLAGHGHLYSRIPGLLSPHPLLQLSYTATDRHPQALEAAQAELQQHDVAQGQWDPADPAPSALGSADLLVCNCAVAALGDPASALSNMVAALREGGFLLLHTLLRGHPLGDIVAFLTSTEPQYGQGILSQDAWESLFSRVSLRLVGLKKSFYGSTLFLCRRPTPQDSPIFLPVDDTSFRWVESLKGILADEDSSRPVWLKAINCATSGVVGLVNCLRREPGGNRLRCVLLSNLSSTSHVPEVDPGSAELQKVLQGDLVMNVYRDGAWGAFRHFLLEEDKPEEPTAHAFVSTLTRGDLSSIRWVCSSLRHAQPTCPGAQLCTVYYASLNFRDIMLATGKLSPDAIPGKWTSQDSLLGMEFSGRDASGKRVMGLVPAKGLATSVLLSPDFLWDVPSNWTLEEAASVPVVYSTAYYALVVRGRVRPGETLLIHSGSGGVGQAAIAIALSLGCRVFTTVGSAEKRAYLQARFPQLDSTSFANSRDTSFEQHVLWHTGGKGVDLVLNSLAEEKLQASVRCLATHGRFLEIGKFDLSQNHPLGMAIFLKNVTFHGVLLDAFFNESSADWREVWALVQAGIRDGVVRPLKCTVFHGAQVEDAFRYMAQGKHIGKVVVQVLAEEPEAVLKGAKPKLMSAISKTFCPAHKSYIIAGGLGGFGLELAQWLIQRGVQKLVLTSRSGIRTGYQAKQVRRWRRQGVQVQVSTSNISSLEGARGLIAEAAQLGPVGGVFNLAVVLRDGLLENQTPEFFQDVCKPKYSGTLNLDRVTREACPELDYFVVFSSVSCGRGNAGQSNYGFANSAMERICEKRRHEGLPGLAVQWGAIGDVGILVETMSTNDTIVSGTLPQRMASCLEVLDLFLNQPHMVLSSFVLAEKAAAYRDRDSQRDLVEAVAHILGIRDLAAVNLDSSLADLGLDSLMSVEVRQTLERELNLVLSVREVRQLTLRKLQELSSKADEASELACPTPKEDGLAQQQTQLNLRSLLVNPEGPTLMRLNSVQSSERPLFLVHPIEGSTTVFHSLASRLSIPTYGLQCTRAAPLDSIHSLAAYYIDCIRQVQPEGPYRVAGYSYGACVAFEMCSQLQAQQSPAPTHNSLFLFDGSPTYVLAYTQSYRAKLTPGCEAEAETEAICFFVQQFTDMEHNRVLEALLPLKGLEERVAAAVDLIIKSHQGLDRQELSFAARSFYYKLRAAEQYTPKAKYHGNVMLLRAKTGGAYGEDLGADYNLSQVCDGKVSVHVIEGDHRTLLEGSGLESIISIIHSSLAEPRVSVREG

[11] = target: T1, Fatty acid synthase; assay: FAS thioesterase domain inhibitors, dose response, biochemical, kinetic fluorescence intensity (AID 624326); type: functional;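 note: rate of fluorescence rise from hydrolysis of a fluorogenic O-methyl fluorescein ester substrate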
[12] = cells
[13] = target: Mitogen-activated protein kinase 10 (Homo sapiens, UniProt P53779); assay: Dose response biochemical screening assay for inhibitors of c-Jun N-Terminal Kinase 3 (JNK3). [Related pubchem assays: 746 ]
Mitogen-activated protein kinase 10, sequence (P53779 whole entry): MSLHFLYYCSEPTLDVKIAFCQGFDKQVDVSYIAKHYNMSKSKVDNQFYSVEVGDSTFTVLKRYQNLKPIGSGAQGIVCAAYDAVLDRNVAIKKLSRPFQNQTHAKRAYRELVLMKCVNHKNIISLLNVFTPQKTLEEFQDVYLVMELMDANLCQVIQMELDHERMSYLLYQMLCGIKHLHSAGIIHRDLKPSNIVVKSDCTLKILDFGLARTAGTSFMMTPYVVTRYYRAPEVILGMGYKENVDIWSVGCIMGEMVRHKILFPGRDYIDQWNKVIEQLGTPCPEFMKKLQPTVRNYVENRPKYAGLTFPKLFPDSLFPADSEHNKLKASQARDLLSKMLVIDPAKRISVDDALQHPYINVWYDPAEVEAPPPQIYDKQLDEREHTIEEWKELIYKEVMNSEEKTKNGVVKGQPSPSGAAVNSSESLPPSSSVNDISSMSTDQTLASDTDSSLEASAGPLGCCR

[14] = tested on: INS1; assay: beta cell apoptosis inhibitors, cytokine rescue, dose response, luminescence, retest (AID 449756); type: functional, cell-based; details: Rattus norvegicus;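 note: cell death triggered by IL-1 beta plus TNF-alpha plus IFN-gamma mixture; protective hits raise ATP signal compared with cytokine alone wells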
[15] = cytotoxicity in HEK-293T cells, dose response, cytotoxicity control for TCR NF-kB inhibitor project, luminescence, T-cell screen hits (AID 489026); type: functional, cell-based;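 note: cells exposed to compound about 14 hours before the viability readout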
[16] = Shn3 3'UTR reporter inhibitors, dose response, cell-based, Clone20 osteoblasts, firefly luciferase, cherry-picked (AID 624132); type: functional;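 note: firefly luciferase luminescence from reporter carrying the Shn3 3'UTR in osteoblasts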
[17] = HepG2 cell cytotoxicity, dose response, cytotoxicity control for Shn3 inhibitor project, CellTiter-Glo, cherry-picked (AID 624134); type: functional, cell-based
[18] = control 3'UTR Renilla luciferase suppression, dose response, counter-screen for Shn3 inhibitor project, cell-based, Clone20-Shn3RL, cherry-picked (AID 624133); type: functional
[19] = target: T2, COUP transcription factor 2 (Homo sapiens, UniProt P24468); assay: Luminescence-based cell-based high throughput dose response assay to identify inhibitors of COUP-TFII (NR2F2).; type: functional;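 note: HEK293 cells transiently cotransfected with COUP-TFII expression vector and reporter; luciferase reporter luminescence driven by COUP-TFII from the pX2-168 reporter plasmid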
T2 sequence (P24468 whole entry): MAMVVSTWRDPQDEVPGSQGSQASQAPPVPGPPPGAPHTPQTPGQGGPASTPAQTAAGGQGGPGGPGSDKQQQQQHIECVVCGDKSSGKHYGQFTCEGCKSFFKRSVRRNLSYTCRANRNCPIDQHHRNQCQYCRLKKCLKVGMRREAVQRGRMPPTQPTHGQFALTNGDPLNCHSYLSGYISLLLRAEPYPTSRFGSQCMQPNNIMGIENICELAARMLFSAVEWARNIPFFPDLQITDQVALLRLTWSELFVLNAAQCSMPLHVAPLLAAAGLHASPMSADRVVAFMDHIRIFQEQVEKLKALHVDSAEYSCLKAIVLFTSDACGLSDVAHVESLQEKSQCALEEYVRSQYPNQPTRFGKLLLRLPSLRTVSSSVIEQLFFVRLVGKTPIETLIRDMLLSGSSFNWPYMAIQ

[20] = target: NAD-dependent protein deacylase sirtuin-5, mitochondrial (Homo sapiens, UniProt Q9NXA8); assay: SIRT5 desuccinylase inhibitors, dose response, biochemical, fluorescence imaging, cherry-pick, set 5 (AID 720591);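 note: desuccinylation of succinyl peptide AMC substrate read as fluorescence after trypsin release; potency of inhibitors that lower fluorescence and may act on trypsin instead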
NAD-dependent protein deacylase sirtuin-5, mitochondrial, sequence (Q9NXA8 whole entry, the tested form may be a part): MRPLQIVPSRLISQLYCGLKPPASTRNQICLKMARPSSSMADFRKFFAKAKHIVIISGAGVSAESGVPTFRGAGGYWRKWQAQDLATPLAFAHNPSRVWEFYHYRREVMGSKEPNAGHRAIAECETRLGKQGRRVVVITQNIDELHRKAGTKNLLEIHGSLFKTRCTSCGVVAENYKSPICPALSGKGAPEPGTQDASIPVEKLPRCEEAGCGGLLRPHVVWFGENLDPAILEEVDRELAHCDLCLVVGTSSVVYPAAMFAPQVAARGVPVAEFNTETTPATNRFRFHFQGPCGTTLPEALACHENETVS

[21] = target: Disintegrin and metalloproteinase domain-containing protein 17 (Homo sapiens, UniProt P78536); assay: exosite inhibitors of ADAM17, dose response, biochemical (AID 743260)
Disintegrin and metalloproteinase domain-containing protein 17, sequence (P78536 whole entry, the tested form may be a part): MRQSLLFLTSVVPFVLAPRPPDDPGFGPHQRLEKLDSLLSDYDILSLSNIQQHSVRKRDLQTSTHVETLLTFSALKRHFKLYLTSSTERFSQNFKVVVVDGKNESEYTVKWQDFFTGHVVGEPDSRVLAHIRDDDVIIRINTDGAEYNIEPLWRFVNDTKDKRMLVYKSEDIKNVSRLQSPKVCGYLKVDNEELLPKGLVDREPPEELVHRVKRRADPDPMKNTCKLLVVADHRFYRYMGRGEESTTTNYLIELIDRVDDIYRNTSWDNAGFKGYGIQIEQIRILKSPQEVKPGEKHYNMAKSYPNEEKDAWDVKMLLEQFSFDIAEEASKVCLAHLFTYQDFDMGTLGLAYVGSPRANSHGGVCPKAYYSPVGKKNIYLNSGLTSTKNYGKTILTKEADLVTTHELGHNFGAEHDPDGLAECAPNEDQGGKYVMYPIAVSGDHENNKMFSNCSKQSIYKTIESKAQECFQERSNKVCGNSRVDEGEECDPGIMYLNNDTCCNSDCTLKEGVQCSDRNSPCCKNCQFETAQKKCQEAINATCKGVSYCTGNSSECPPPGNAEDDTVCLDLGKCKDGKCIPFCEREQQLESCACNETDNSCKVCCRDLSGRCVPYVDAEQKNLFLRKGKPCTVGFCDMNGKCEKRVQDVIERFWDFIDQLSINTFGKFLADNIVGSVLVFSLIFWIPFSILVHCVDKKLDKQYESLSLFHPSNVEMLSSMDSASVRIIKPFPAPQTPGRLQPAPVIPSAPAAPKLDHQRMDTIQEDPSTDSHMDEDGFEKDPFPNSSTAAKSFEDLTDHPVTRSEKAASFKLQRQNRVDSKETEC

[22] = ADAM10 protease inhibitors, dose response, selectivity assay for ADAM17 exosite inhibitor project, biochemical, FRET peptide substrate, recombinant human ADAM10 (AID 743259);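 note: ADAM10 enzyme cleaving a FRET peptide substrate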
[23] = target: Peroxisome proliferator-activated receptor gamma/Nuclear receptor coactivator 1 (Homo sapiens, UniProt P37231); assay: TR-FRET dose response biochemical High Throughput Screening assay for agonists of the steroid receptor coactivator 1 (SRC-1) recruitment by the peroxisome proliferator-activated receptor gamma (PPAR gamma): non-selective agonists. [Related pubchem assays (depositor defined):AID1300, AID1808, AID504735, AID631]; type: protein assay
[24] = target: Peroxisome proliferator-activated receptor gamma/Nuclear receptor coactivator 3 (Homo sapiens, UniProt P37231); assay: TR-FRET dose response biochemical High Throughput Screening assay for agonists of the steroid receptor coactivator 3 (SRC-3) recruitment by the peroxisome proliferator-activated receptor gamma (PPAR gamma): non-selective agonists. [Related pubchem assays: 1301 (Confirmation screen.), 1048 (Primary screen.)]; type: functional
[25] = target: Peroxisome proliferator-activated receptor gamma/Nuclear receptor coactivator 2 (Homo sapiens, UniProt P37231); assay: TR-FRET dose response biochemical High Throughput Screening assay for agonists of the steroid receptor coactivator 2 (SRC-2) recruitment by the peroxisome proliferator-activated receptor gamma (PPAR gamma): non-selective agonists. [Related pubchem assays: 1297, 1032 ]; type: functional
[26] = NIH-3T3 fibroblast cytotoxicity, dose response, cytotoxicity control, cell-based, fluorescence, Alamar Blue, secondary assay (AID 2327); type: functional;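 note: NIH-3T3 mouse fibroblasts cultured with fluconazole at 8 µg/mL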
[27] = C. albicans growth with fluconazole, confirmation, fluorescence, retest (AID 2467); type: functional, cell-based
[28] = target: T3, DNA repair protein RAD52 homolog (Homo sapiens, UniProt P43351); type: functional, biochemical
T3 sequence (P43351 whole entry): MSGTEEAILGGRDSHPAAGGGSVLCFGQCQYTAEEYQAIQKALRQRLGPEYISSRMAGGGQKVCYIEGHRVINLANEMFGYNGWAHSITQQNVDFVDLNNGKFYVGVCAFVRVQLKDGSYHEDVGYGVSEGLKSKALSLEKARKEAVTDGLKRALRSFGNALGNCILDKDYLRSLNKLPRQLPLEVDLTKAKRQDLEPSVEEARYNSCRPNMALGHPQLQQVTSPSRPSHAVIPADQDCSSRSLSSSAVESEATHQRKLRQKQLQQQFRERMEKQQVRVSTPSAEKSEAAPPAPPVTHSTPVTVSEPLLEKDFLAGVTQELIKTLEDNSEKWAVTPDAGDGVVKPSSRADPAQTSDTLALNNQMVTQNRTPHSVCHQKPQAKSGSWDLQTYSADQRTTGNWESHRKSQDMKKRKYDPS

[29] = target: T4, Galanin receptor type 3 (Homo sapiens, UniProt O60755); assay: Fluorescence-based cell-based primary high throughput dose response assay to identify antagonists of the Galanin Receptor 3 (GalR3).; type: functional
T4 sequence (O60755 whole entry): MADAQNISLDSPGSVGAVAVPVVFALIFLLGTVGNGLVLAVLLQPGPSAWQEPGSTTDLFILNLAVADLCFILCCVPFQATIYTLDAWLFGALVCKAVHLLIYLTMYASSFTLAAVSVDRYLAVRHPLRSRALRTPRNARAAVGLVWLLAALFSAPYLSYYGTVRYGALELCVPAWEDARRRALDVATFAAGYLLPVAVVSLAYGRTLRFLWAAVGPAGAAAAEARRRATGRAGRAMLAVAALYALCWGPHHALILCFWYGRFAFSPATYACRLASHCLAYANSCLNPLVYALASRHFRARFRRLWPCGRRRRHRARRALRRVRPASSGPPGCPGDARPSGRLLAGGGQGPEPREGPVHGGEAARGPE

[30] = cells; type: functional, cell-based; details: HEK-CNG
[31] = P. falciparum 3D7-ScDHODH growth inhibitors, dose response, SYBR Green, dry powder samples (AID 1159570); type: functional, cell-based;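 note: parasite growth measured after 72 hours of compound exposure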
[32] = HepG2 cell cytotoxicity, dose response, cytotoxicity control, plate reader, dry powder samples (AID 1159569); type: functional, cell-based;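 note: inhibitor potency with signal falling toward the positive control level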
[33] = P. falciparum Dd2 growth inhibitors, dose response, SYBR Green, cherry-picked samples (AID 1159567); type: functional, cell-based
[34] = P. falciparum Dd2 growth inhibitors, dose response, SYBR Green, dry powder samples (AID 1159566); type: functional, cell-based;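 note: potency for growth inhibition with lower SYBR green DNA signal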
[35] = P. falciparum ATP4 D1247Y mutant growth inhibitors, dose response, NITD609-resistant line, SYBR Green, dry powder (AID 1159571); type: functional, cell-based;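 note: parasites synchronized at ring stage by sorbitol before testing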
[36] = HepG2 cell cytotoxicity, dose response, cytotoxicity control, cherry-picked samples (AID 1159577); type: functional, cell-based

COc1cccc(N(C(=O)c2nc3nccc(C)n3n2)c2nc3ccccc3s2)c1
EC50 [1]: 0.248 µM (active) | EC50 [2]: 0.122 µM (active) | EC50 [3]: 0.192 µM (active) | EC50 [4]: 0.166 µM (active) | EC50 [5]: 0.338 µM (active) | EC50 [6]: 0.464 µM (active) | AC50 [7]: 43.5 µM (active)

O=C(NCCCCc1ccccc1)c1cc([N+](=O)[O-])cc([N+](=O)[O-])c1
EC50 [8]: < 0.1 µM (active) | EC50 [9]: > 60 µM (not active) | IC50 [10]: 12.4 µM (active) | IC50 [11]: 8 µM (active) | EC50 [12]: 0.258 µM (active)

CCCc1cc(O)n2c(n1)nc1ccccc12
IC50 [13]: 35 µM (not active)

Cn1nc([N+](=O)[O-])nc1Sc1cccc2cccnc12
EC50 [8]: < 0.1 µM (active) | EC50 [9]: > 60 µM (not active) | AC50 [14]: 2.59 µM (active) | EC50 [12]: 0.115 µM (active)

COc1cccc(CN(C)C(=O)c2ccc(OCC(=O)Nc3cccc(C(F)(F)F)c3)c(OC)c2)c1
IC50 [15]: > 80 µM (inactive) | AC50 [16]: 4.93 µM (active) | AC50 [17]: 3.38 µM (active) | AC50 [18]: 14.4 µM (active) | IC50 [19]: 4.57 µM (active)

COc1ccc2c(COC(=O)c3[nH]nc4ccccc34)cc(=O)oc2c1
EC50 [1]: 0.752 µM (active) | EC50 [3]: < 0.1 µM (inconclusive) | EC50 [4]: 0.409 µM (active) | EC50 [5]: 0.684 µM (active) | EC50 [6]: 0.352 µM (active)

CN(C)C(=O)c1cc(C(=O)c2ccc(C(F)(F)F)cc2F)c[nH]1
AC50 [20]: > 30 µM (inactive)

Cc1cccc(C2(c3cccc(C)c3)OC(=O)c3ccccc32)c1
AC50 [14]: 17.7 µM (active) | IC50 [21]: > 69.5 µM (inactive) | IC50 [22]: > 23.2 µM (inactive)

Cc1ccc(S(=O)(=O)N2CCCCC2)cc1NC(=O)CNc1ccc(C(F)(F)F)cc1
IC50 [21]: > 69.5 µM (inactive) | IC50 [22]: 8.89 µM (active)

Cc1cn(S(=O)(=O)c2ccc(Br)c3ccccc23)cn1
EC50 [23]: > 79.4 µM (inactive) | EC50 [24]: > 79.4 µM (not active) | EC50 [25]: > 79.4 µM (not active) | IC50 [13]: 15.5 µM (not active)

CC1=CC(=Cc2sc3ccccc3[n+]2C)C=C(C)O1.[O-][Cl+3]([O-])([O-])[O-]
EC50 [26]: > 160 µM (inactive) | EC50 [27]: 0.491 µM (active) | EC50 [8]: < 0.1 µM (active) | EC50 [9]: 32.3 µM (active) | AC50 [28]: 5.78 µM (active) | IC50 [19]: 8.76 µM (active) | EC50 [12]: 0.009 µM (active)

Cc1cc(S(=O)(=O)Nc2ccc(C(=O)NCC3(N4CCCCC4)CCCCC3)cc2)ccc1F
AC50 [20]: > 30 µM (inactive)

Cc1cc(C)c(CN2CCN(C(=O)Cn3cnc4c(OCc5ccccc5)ncnc43)CC2)c(C)c1
IC50 [15]: > 80 µM (inactive) | AC50 [14]: 3.51 µM (active) | IC50 [29]: 2.86 µM (active) | EC50 [30]: > 29.9 µM (inactive) | IC50 [19]: 5.99 µM (active)

CCC(=O)N1CC2(CCN(C(=O)Nc3ccccc3F)CC2)c2c([nH]c3cc(OC)ccc23)[C@H]1CO
AC50 [31]: 1.2 µM (active) | AC50 [32]: 50.4 µM (active) | AC50 [33]: 1.24 µM (active) | AC50 [34]: 1.1 µM (active) | AC50 [35]: 0.934 µM (active)

C[C@H]1CN([C@@H](C)CO)C(=O)c2cc(C#CCc3ccccc3)cnc2O[C@@H]1CN(C)CC1CCCC1
AC50 [33]: 4.29 µM (active) | AC50 [36]: 11.2 µM (active)

COc1ccccc1C#Cc1ccc([C@H]2[C@@H](C#N)N(C(=O)C3CCCC3)[C@@H]2CO)cc1
AC50 [33]: 5.1 µM (active) | AC50 [36]: > 39 µM (inactive)

CCC(=O)N1[C@H](CO)[C@H](c2ccc(C3=CCCC3)cc2)[C@H]1CNCC1CCCC1
AC50 [33]: 3.77 µM (active) | AC50 [36]: > 39 µM (inactive)

COc1ccc(NC(=O)Nc2cccc3c2O[C@H](CN(C)C(=O)Nc2cccc4ccccc24)[C@H](C)CN([C@@H](C)CO)C3=O)cc1
AC50 [31]: 1.64 µM (active) | AC50 [32]: > 100 µM (inactive) | AC50 [33]: 2.54 µM (active) | AC50 [34]: 0.547 µM (active) | AC50 [35]: 0.971 µM (active)

— ChEMBL document CHEMBL1201862, “PubChem BioAssay data set” (2004)
